Data reported in the supplement of paper PMC11061612.

How the values were obtained:
Experiment in all cases: Bliss excess, mean over the matrix (fraction); higher = more synergy
ACHN (Kidney Carcinoma) = tested on: ACHN (Kidney Carcinoma)
In short: (§1)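 Bliss excess equals the observed combination effect minus the expected value EA + EB − EA·EB, where EA and EB are the effects of each agent alone. Combination Emax is the second-highest inhibition within the matrix. Inhibition was scaled from CellTiter-Glo 2.0 luminescence, with 0 set by vehicle wells and 1 by blank wells, after 72 hours of two-drug dosing of cells plated in 1536-well plates.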

[1] = tested on: AMO-1 (Plasma Cell Myeloma)
In short: as §1

[2] = tested on: Ca9-22 (Head and Neck Carcinoma)
In short: as §1

[3] = tested on: Caov-4 (Ovarian Carcinoma)
In short: as §1

D-263MG (Glioblastoma) = tested on: D-263MG (Glioblastoma)
In short: as §1

[4] = tested on: EFM-19 (Breast Carcinoma)
In short: as §1

[5] = tested on: EoL-1-cell (Acute Myeloid Leukemia)
In short: as §1

[6] = tested on: Hs-766T (Pancreatic Carcinoma)
In short: as §1

[7] = tested on: KARPAS-299 (T-Cell Non-Hodgkin's Lymphoma)
In short: as §1

[8] = tested on: LU-65 (Non-Small Cell Lung Carcinoma)
In short: as §1

[9] = tested on: MIA-PaCa-2 (Pancreatic Carcinoma)
In short: as §1

[10] = tested on: MLMA (Other Blood Carcinomas)
In short: as §1

NB69 (Neuroblastoma) = tested on: NB69 (Neuroblastoma)
In short: as §1

[11] = tested on: NCI-H358 (Lung Adenocarcinoma)
In short: as §1

[12] = tested on: NCI-H727 (Other Solid Carcinomas)
In short: as §1

[13] = tested on: PANC-04-03 (Pancreatic Carcinoma)
In short: as §1

[14] = tested on: SW13 (Other Solid Carcinomas)
In short: as §1

TGW (Neuroblastoma) = tested on: TGW (Neuroblastoma)
In short: as §1

UACC-62 (Melanoma) = tested on: UACC-62 (Melanoma)
In short: as §1

YH-13 (Glioblastoma) = tested on: YH-13 (Glioblastoma)
In short: as §1

SMILES | Bliss excess (ACHN (Kidney Carcinoma)) | Bliss excess [1] | Bliss excess [2] | Bliss excess [3] | Bliss excess (D-263MG (Glioblastoma)) | Bliss excess [4] | Bliss excess [5] | Bliss excess [6] | Bliss excess [7] | Bliss excess [8] | Bliss excess [9] | Bliss excess [10] | Bliss excess (NB69 (Neuroblastoma)) | Bliss excess [11] | Bliss excess [12] | Bliss excess [13] | Bliss excess [14] | Bliss excess (TGW (Neuroblastoma)) | Bliss excess (UACC-62 (Melanoma)) | Bliss excess (YH-13 (Glioblastoma))
Cc1cc2ncnn2cc1Nc1ncc2c(n1)n(C1CCOCC1)c(=O)n2C [AZD7648] + C=CCn1c(=O)c2cnc(Nc3ccc(N4CCN(C)CC4)cc3)nc2n1-c1cccc(C(C)(C)O)n1 [AZD1775] (first compound max 10 µM, partner max 1 µM) | -0.0178 | -0.0422 | 0.022 | 0.0222 | 0.0037 | -0.0596 | 0.0137 | -0.0274 | 0.0072 | -0.0027 | -0.0459 | -0.0665 | -0.0504 | -0.0156 | 0.024 | 0.0135 | 0.0004 | -0.0505 | 0.0242 | 0.0076
C[C@@H](c1ccc2nccn2c1)n1nnc2ncc(-c3cnn(C)c3)nc21 [Savolitinib] + CC1(C)CCC(CN2CCN(c3ccc(C(=O)NS(=O)(=O)c4ccc(NCC5CCOCC5)c([N+](=O)[O-])c4)c(Oc4cnc5[nH]ccc5c4)c3)CC2)=C(c2ccc(Cl)cc2)C1 [Venetoclax] (first compound max 1 µM, 7x7, partner max 1 µM) | -0.0443 | 0.0036 | -0.0231 | -0.0839 | -0.0797 | -0.0273 | 0.0273 | -0.0681 | -0.0121 | -0.0738 | -0.0355 | -0.022 | -0.0378 | -0.0564 | -0.0536 | -0.0736 | -0.0363 | -0.0486 | -0.0111 | 0.0179
Cc1cc2ncnn2cc1Nc1ncc2c(n1)n(C1CCOCC1)c(=O)n2C [AZD7648] + CCN(CCO)CCCOc1ccc2c(Nc3cc(CC(=O)Nc4cccc(F)c4)[nH]n3)ncnc2c1 [AZD2811] (first compound max 10 µM, 7x7, partner max 1 µM) | -0.0051 | 0.0431 | 0.0541 | 0.0293 | 0.0415 | 0.116 | -0.0572 | -0.0197 | 0.0493 | 0.0057 | 0.0108 | -0.0095 | -0.0195 | -0.0718 | -0.0003 | -0.0078 | 0.0406 | 0.0148 | -0.0027 | -0.0762
N#Cc1cnc(Nc2cc(NC[C@H]3CNCCO3)c(C(F)(F)F)cn2)cn1 [SRA737] + CCc1c2c(nc3ccc(O)cc13)-c1cc3c(c(=O)n1C2)COC(=O)[C@]3(O)CC [SN-38] (first compound max 10 µM, 7x7, partner max 0.3 µM) | -0.0867 | -0.0225 | 0.0252 | -0.0488 | 0.0777 | 0.107 | -0.0375 | -0.0095 | 0.0148 | -0.0191 | 0.0599 | -0.061 | -0.0351 | 0.0057 | 0.0316 | -0.0583 | -0.0192 | 0.0191 | 0.0364 | 0.0231
N#Cc1cnc(Nc2cc(NC[C@H]3CNCCO3)c(C(F)(F)F)cn2)cn1 [SRA737] + O=c1[nH]cc(F)c(=O)[nH]1 [5-Fluorouracil] (first compound max 10 µM, 7x7, partner max 20 µM) | -0.0547 | -0.0004 | 0.0135 | -0.0494 | -0.0456 | 0.0189 | -0.0084 | 0.0415 | 0.0529 | 0.0104 | -0.0352 | -0.0455 | -0.0068 | -0.0743 | 0.001 | 0.0102 | -0.026 | -0.0389 | -0.0561 | 0.0119
CN(CCO)CC[C@H](CSc1ccccc1)Nc1ccc(S(=O)(=O)NC(=O)c2ccc(N3CCC([C@@H](O)c4ccccc4-c4ccc(Cl)cc4)CC3)cc2)cc1S(=O)(=O)C(F)(F)F [AZD4320] + C=CCn1c(=O)c2cnc(Nc3ccc(N4CCN(C)CC4)cc3)nc2n1-c1cccc(C(C)(C)O)n1 [AZD1775] (first compound max 1 µM, partner max 1 µM) | 0.0342 | 0.0119 | 0.0335 | -0.0248 | -0.0277 | 0.0433 | -0.0146 | -0.0431 | 0.0477 | -0.0162 | -0.0176 | 0.0379 | 0.0032 | -0.0765 | -0.0587 | -0.048 | -0.02 | -0.008 | 0.025 | -0.0163
CN(CCO)CC[C@H](CSc1ccccc1)Nc1ccc(S(=O)(=O)NC(=O)c2ccc(N3CCC([C@@H](O)c4ccccc4-c4ccc(Cl)cc4)CC3)cc2)cc1S(=O)(=O)C(F)(F)F [AZD4320] + C[C@@H](Nc1cc(F)cc(F)c1)c1cc(C(=O)N(C)C)cc2c(=O)cc(N3CCOCC3)oc12 [AZD8186] (first compound max 1 µM, 7x7, partner max 3 µM) | 0.0163 | 0.0318 | -0.0194 | 0.0112 | 0.0288 | -0.0426 | 0.0255 | 0.0113 | 0.044 | -0.0216 | -0.0084 | 0.0859 | -0.0381 | -0.0461 | 0.0309 | 0.0202 | 0.0064 | -0.027 | 0.102 | 0.0513
C[C@@H](c1ccc2nccn2c1)n1nnc2ncc(-c3cnn(C)c3)nc21 [Savolitinib] + Cc1c2c(nn1C)CSCc1cc(n(C)n1)CSc1cc(c3ccccc3c1)OCCCc1c(C(=O)O)n(C)c3c-2c(Cl)ccc13 [AZD5991] (first compound max 1 µM, 7x7, partner max 1 µM) | -0.0103 | 0.0251 | -0.01 | -0.011 | -0.0571 | -0.0236 | 0.0703 | -0.0404 | 0.081 | -0.0437 | -0.007 | -0.0122 | -0.0122 | -0.0538 | -0.0099 | -0.0216 | -0.0541 | -0.0467 | 0.0285 | 0.023
Cc1cc2ncnn2cc1Nc1ncc2c(n1)n(C1CCOCC1)c(=O)n2C [AZD7648] + C[C@@H]1COCCN1C2=NC(=NC(=C2)C3(CC3)[S@](=N)(=O)C)C4=C5C=CNC5=NC=C4 [AZD6738] (first compound max 10 µM, 7x7, partner max 10 µM) | -0.0316 | -0.0184 | 0.0578 | 0.0087 | -0.0206 | 0.0323 | -0.0123 | 0.0552 | -0.0183 | -0.0392 | -0.0254 | -0.0289 | 0.0172 | 0.0099 | 0.0381 | 0.0123 | 0.0707 | 0.0388 | 0.0529 | 0.0821
COc1cc2ncnc(Nc3ccc(F)c(Cl)c3)c2cc1OCCCN1CCOCC1 [Gefitinib] + CC(C)n1c(=O)n(C)c2cnc3cc(F)c(-c4ccc(OCCCN5CCCCC5)nc4)cc3c21 [AZD1390] (first compound max 10 µM, 7x7, partner max 0.3 µM) | -0.0829 | -0.0485 | 0.0579 | -0.0591 | -0.0401 | -0.0722 | -0.0385 | -0.0908 | -0.0218 | -0.0614 | -0.0307 | -0.0358 | -0.0615 | -0.0493 | -0.108 | -0.0853 | -0.0233 | -0.0438 | -0.0358 | -0.0848
N#Cc1cnc(Nc2cc(NC[C@H]3CNCCO3)c(C(F)(F)F)cn2)cn1 [SRA737] + Nc1ccn([C@@H]2O[C@H](CO)[C@@H](O)C2(F)F)c(=O)n1 [Gemcitabine] (first compound max 10 µM, 7x7, partner max 0.3 µM) | -0.0356 | 0.0377 | 0.122 | 0.0158 | 0.0556 | 0.0489 | 0.0316 | 0.003 | 0.0707 | 0.0224 | 0.124 | -0.0924 | 0.0366 | -0.0054 | -0.0046 | -0.0036 | 0.0367 | -0.0301 | 0.019 | 0.0032
COc1cc2c(cc1OCCCCCOc1cc3c(cc1OC)C(=O)N1C=C(C)C[C@H]1C=N3)N=C[C@@H]1CC(C)=CN1C2=O [SG3199] + O=C(c1cc(Cc2n[nH]c(=O)c3ccccc23)ccc1F)N1CCN(C(=O)C2CC2)CC1 [Olaparib] (first compound max 0.001 µM, 7x7, partner max 10 µM) | -0.0192 | -0.0342 | -0.0113 | -0.0267 | -0.018 | -0.063 | -0.0348 | -0.0433 | -0.0122 | 0.0047 | -0.0415 | -0.0269 | -0.0102 | -0.0353 | -0.0726 | -0.046 | -0.0184 | -0.0446 | -0.0663 | -0.0282
Cc1cc2ncnn2cc1Nc1ncc2c(n1)n(C1CCOCC1)c(=O)n2C [AZD7648] + COc1cc([C@@H]2c3cc4c(cc3[C@@H](O[C@@H]3O[C@@H]5CO[C@@H](C)O[C@H]5[C@H](O)[C@H]3O)[C@H]3COC(=O)[C@H]23)OCO4)cc(OC)c1O [Etoposide] (first compound max 10 µM, 7x7, partner max 10 µM) | 0.0535 | 0.138 | 0.141 | 0.0606 | 0.0729 | -0.0295 | 0.191 | -0.0566 | 0.0522 | 0.0212 | 0.05 | -0.0968 | -0.0239 | -0.0079 | -0.0041 | 0.017 | 0.0808 | 0.0615 | 0.045 | 0.0877
